Source: the supplement of paper PMC11451515

Tested on: SEM cells
Test: cell viability relative to DMSO control; higher = less cytotoxic
Conditions: 48 h
In short: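 Viability, reported as a per-plate percentage of DMSO wells with cell-free wells as background, came from CellTiter-Glo One luminescence. Reading took place after 48 h at 37°C. Before that, NOMO1 or SEM (500 cells/well) or P12-Ichikawa (1000 cells/well) leukemia cells, adapted for at least four passages in each medium, were seeded in 1536-well plates (5 μl) and pin-dosed with library compounds in DMSO, 47 μM to 0.79 nM over 11 threefold points.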

[1] = HPLM + 10% dialyzed FBS, 0.000781 µM
[2] = HPLM + 10% dialyzed FBS, 0.00234 µM
[3] = HPLM + 10% dialyzed FBS, 0.00702 µM
[4] = HPLM + 10% dialyzed FBS, 0.0211 µM
[5] = HPLM + 10% dialyzed FBS, 0.0632 µM
[6] = HPLM + 10% dialyzed FBS, 0.19 µM
[7] = HPLM + 10% dialyzed FBS, 0.569 µM
[8] = HPLM + 10% dialyzed FBS, 1.71 µM
[9] = HPLM + 10% dialyzed FBS, 5.12 µM
[10] = HPLM + 10% dialyzed FBS, 15.4 µM
[11] = HPLM + 10% dialyzed FBS, 46.1 µM
[12] = RPMI 5 mM glucose + 10% FBS, 0.000781 µM
[13] = RPMI 5 mM glucose + 10% FBS, 0.00234 µM
[14] = RPMI 5 mM glucose + 10% FBS, 0.00702 µM
[15] = RPMI 5 mM glucose + 10% FBS, 0.0211 µM
[16] = RPMI 5 mM glucose + 10% FBS, 0.0632 µM
[17] = RPMI 5 mM glucose + 10% FBS, 0.19 µM
[18] = RPMI 5 mM glucose + 10% FBS, 0.569 µM
[19] = RPMI 5 mM glucose + 10% FBS, 1.71 µM
[20] = RPMI 5 mM glucose + 10% FBS, 5.12 µM
[21] = RPMI 5 mM glucose + 10% FBS, 15.4 µM
[22] = RPMI 5 mM glucose + 10% FBS, 46.1 µM
[23] = RPMI 5 mM glucose + 10% dialyzed FBS, 0.000781 µM
[24] = RPMI 5 mM glucose + 10% dialyzed FBS, 0.00234 µM
[25] = RPMI 5 mM glucose + 10% dialyzed FBS, 0.00702 µM
[26] = RPMI 5 mM glucose + 10% dialyzed FBS, 0.0211 µM
[27] = RPMI 5 mM glucose + 10% dialyzed FBS, 0.0632 µM
[28] = RPMI 5 mM glucose + 10% dialyzed FBS, 0.19 µM
[29] = RPMI 5 mM glucose + 10% dialyzed FBS, 0.569 µM
[30] = RPMI 5 mM glucose + 10% dialyzed FBS, 1.71 µM
[31] = RPMI 5 mM glucose + 10% dialyzed FBS, 5.12 µM
[32] = RPMI 5 mM glucose + 10% dialyzed FBS, 15.4 µM
[33] = RPMI 5 mM glucose + 10% dialyzed FBS, 46.1 µM

CC1=C(C)C(=O)C(C(CCCCCC(=O)O)c2ccccc2)=C(C)C1=O (stereo unspecified)
cell viability [1]: 63.6% | cell viability [2]: 70.7% | cell viability [3]: 56.2% | cell viability [4]: 69.2% | cell viability [5]: 65.6% | cell viability [6]: 78.1% | cell viability [7]: 71.6% | cell viability [8]: 64.6% | cell viability [9]: 59.7% | cell viability [10]: 44.7% | cell viability [11]: 41% | cell viability [12]: 77.4% | cell viability [13]: 92% | cell viability [14]: 73.4% | cell viability [15]: 79.9% | cell viability [16]: 75.1% | cell viability [17]: 77.4% | cell viability [18]: 59% | cell viability [19]: 57.3% | cell viability [20]: 35.1% | cell viability [21]: 26.7% | cell viability [22]: 31.9% | cell viability [23]: 54.8% | cell viability [24]: 74.5% | cell viability [25]: 57.1% | cell viability [26]: 69.9% | cell viability [27]: 75.2% | cell viability [28]: 97.2% | cell viability [29]: 58.6% | cell viability [30]: 76.6% | cell viability [31]: 46.5% | cell viability [32]: 48.6% | cell viability [33]: 24.9%

CCN1CCN(CC1)CC(=O)NC2=CC=C(C3=C2C4=C(S3)C=CC=C4)C5=C6O\C(=C/C(=O)C6=CC=C5)N7CCOCC7
cell viability [1]: 107% | cell viability [2]: 98.2% | cell viability [3]: 109% | cell viability [4]: 106% | cell viability [5]: 111% | cell viability [6]: 93.4% | cell viability [7]: 88.4% | cell viability [8]: 30% | cell viability [9]: 18% | cell viability [10]: 8.23% | cell viability [11]: 30.3% | cell viability [12]: 117% | cell viability [13]: 108% | cell viability [14]: 107% | cell viability [15]: 95.2% | cell viability [16]: 124% | cell viability [17]: 91.7% | cell viability [18]: 82.3% | cell viability [19]: 55.6% | cell viability [20]: 14.4% | cell viability [21]: 8.04% | cell viability [22]: 27.8% | cell viability [23]: 137% | cell viability [24]: 122% | cell viability [25]: 123% | cell viability [26]: 116% | cell viability [27]: 105% | cell viability [28]: 110% | cell viability [29]: 88.6% | cell viability [30]: 71.3% | cell viability [31]: 24% | cell viability [32]: 9.66% | cell viability [33]: 27.2%

N#CCNC(=O)c1ccc(-c2ccnc(Nc3ccc(N4CCOCC4)cc3)n2)cc1
cell viability [12]: 98.5% | cell viability [13]: 107% | cell viability [14]: 122% | cell viability [15]: 108% | cell viability [16]: 126% | cell viability [17]: 116% | cell viability [18]: 103% | cell viability [19]: 107% | cell viability [20]: 87% | cell viability [21]: 37.9% | cell viability [22]: 13.1% | cell viability [23]: 91.3% | cell viability [24]: 107% | cell viability [25]: 105% | cell viability [26]: 115% | cell viability [27]: 120% | cell viability [28]: 101% | cell viability [29]: 91.5% | cell viability [30]: 88.5% | cell viability [31]: 65.1% | cell viability [32]: 37.2% | cell viability [33]: 21.6%

CC1(C)O[C@@H]2C[C@H]3[C@@H]4C[C@H](F)C5=CC(=O)C=C[C@]5(C)[C@@]4(F)[C@@H](O)C[C@]3(C)[C@]2(C(=O)CO)O1
cell viability [1]: 97.9% | cell viability [2]: 98.7% | cell viability [3]: 91.3% | cell viability [4]: 83.5% | cell viability [5]: 58.3% | cell viability [6]: 51.5% | cell viability [7]: 41% | cell viability [8]: 44.9% | cell viability [9]: 43.8% | cell viability [10]: 54.4% | cell viability [11]: 45.4% | cell viability [12]: 98.3% | cell viability [13]: 120% | cell viability [14]: 87.1% | cell viability [15]: 82.6% | cell viability [16]: 65.5% | cell viability [17]: 63.2% | cell viability [18]: 63.4% | cell viability [19]: 49.5% | cell viability [20]: 51.1% | cell viability [21]: 56.1% | cell viability [22]: 53.7% | cell viability [23]: 116% | cell viability [24]: 109% | cell viability [25]: 98.4% | cell viability [26]: 91.3% | cell viability [27]: 59.6% | cell viability [28]: 55.2% | cell viability [29]: 39.1% | cell viability [30]: 51.7% | cell viability [31]: 47.8% | cell viability [32]: 44.6% | cell viability [33]: 49.2%
